# Results as given in patent US7026339B2, “Inhibitors of HCV NS5B polymerase” (priority 2003, dated 2006).
# System: HuH-7 replicon cells 5–15 and 9–13 (HCV replication)
# Test: Inhibition of viral replication in HuH-7 replicon cells (HCV RNA / GAPDH RNA by multiplex RT-PCR)
# Type: cell-based
# Details: Hepatitis C virus, 72 h; inhibiting 50% of replication; HuH-7 replicon cells, 3 days; read-out: IC50
# Summary of the method: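 Replicon cells seeded at 7×10^3 cells/well, grown 24 h, then exposed 3 days at 37 °C to compound at final 100 μM–1 μM (1% DMSO). Multiplex TaqMan RT-PCR on total RNA quantified HCV 5′-UTR and GAPDH RNA against a standard curve; HCV/GAPDH ratio reported as percent of untreated control.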
row,SMILES,IC50
1,"COc1cccc(CC(=O)N/N=C/c2ccccc2OS(=O)(=O)c2ccc(C)cc2)c1 [Compound 145, 2-((E)-{2-[2-(3-methoxyphenyl)acetyl]hydrazono}methyl)-phenyl 4-methylbenzenesulfonate]",< 5 µM
2,"COc1cccc(CC(=O)N/N=C/c2ccccc2OS(=O)(=O)c2ccc(C(F)(F)F)cc2)c1 [Compound 146, 2-((E)-{2-[2-(3-methoxyphenyl)acetyl]hydrazono}methyl)-phenyl 4-(trifluoromethyl)benzenesulfonate]",< 5 µM
3,"Cc1ccc(S(=O)(=O)Oc2ccccc2/C=N/NC(=O)Cc2cccc(Cl)c2)cc1 [Compound 147, 2-((E)-{2-[2-(3-chlorophenyl)acetyl]hydrazono}methyl)-phenyl 4-methylbenzenesulfonate]",< 5 µM
4,"O=C(Cc1cccc(Cl)c1)N/N=C/c1ccccc1OS(=O)(=O)c1ccc(C(F)(F)F)cc1 [Compound 148, 2-((E)-{2-[2-(3-chlorophenyl)acetyl]hydrazono}methyl)-phenyl 4-(trifluoromethyl)benzenesulfonate]",< 5 µM
5,"COc1ccc(CC(=O)N/N=C/c2ccccc2OS(=O)(=O)c2ccc(C)cc2)cc1OC [Compound 149, 2-((E)-{2-[2-(3,4-dimethoxyphenyl)acetyl]hydrazono}methyl)-phenyl 4-methylbenzenesulfonate]",< 5 µM
6,"COc1ccc(CC(=O)N/N=C/c2ccccc2OS(=O)(=O)c2ccc(C(F)(F)F)cc2)cc1OC [Compound 150, 2-((E)-{2-[2-(3,4-dimethoxyphenyl)acetyl]hydrazono}methyl)-phenyl 4-(trifluoromethyl)benzenesulfonate]",< 5 µM
7,"COc1ccc(S(=O)(=O)Oc2ccccc2/C=N/NC(=O)Cc2cccc(OC)c2)cc1 [Compound 151, 2-((E)-{2-[2-(3-methoxyphenyl)acetyl]hydrazono}methyl)-phenyl 4-methoxybenzenesulfonate]",< 5 µM
8,"COc1cccc(CC(=O)N/N=C/c2ccccc2OS(=O)(=O)c2ccc(OC)c(OC)c2)c1 [Compound 152, 2-((E)-{2-[2-(3-methoxyphenyl)acetyl]hydrazono}methyl)-phenyl 3,4-dimethoxybenzenesulfonate]",< 5 µM
9,"COc1cccc(CC(=O)N/N=C/c2ccccc2OS(=O)(=O)c2cc(OC)ccc2OC)c1 [Compound 153, 2-((E)-{2-[2-(3-methoxyphenyl)acetyl]hydrazono}methyl)-phenyl 2,5-dimethoxybenzenesulfonate]",< 5 µM
10,"COc1cccc(CC(=O)N/N=C/c2ccccc2OS(=O)(=O)c2ccc(OC)cc2OC)c1 [Compound 154, 2-((E)-{2-[2-(3-methoxyphenyl)acetyl]hydrazono}methyl)-phenyl 2,4-dimethoxybenzenesulfonate]",< 5 µM
11,"COc1cccc(CC(=O)N/N=C/c2cc(Cl)ccc2OS(=O)(=O)c2ccc(C)cc2)c1 [Compound 155, 4-chloro-2-((E)-{[(3-methoxyphenyl)acetyl]hydrazono}methyl)-phenyl 4-methylbenzenesulfonate]",< 5 µM
12,"COc1cccc(CC(=O)N/N=C/c2cc(OC)ccc2OS(=O)(=O)c2ccc(C)cc2)c1 [Compound 156, 4-methoxy-2-((E)-{[(3-methoxyphenyl)acetyl]hydrazono}methyl)-phenyl 4-methylbenzenesulfonate]",< 5 µM
13,"COc1cccc(CC(=O)N/N=C/c2cc(C)ccc2OS(=O)(=O)c2ccc(C)cc2)c1 [Compound 157, 2-((E)-{[(3-methoxyphenyl)acetyl]hydrazono}methyl)-4-methylphenyl 4-methylbenzenesulfonate]",< 5 µM
14,"COc1cccc(CC(=O)N/N=C/c2cc(F)ccc2OS(=O)(=O)c2ccc(C)cc2)c1 [Compound 158, 4-fluoro-2-((E)-{[(3-methoxyphenyl)acetyl]hydrazono}methyl)-phenyl 4-methylbenzenesulfonate]",< 5 µM
15,COc1cccc(CC(=O)N/N=C/c2cccc(F)c2OS(=O)(=O)c2ccc(C)cc2)c1 [Compound 159],5 to 50 µM
16,"COc1cccc(CC(=O)N/N=C/c2cccc(OC)c2OS(=O)(=O)c2ccc(C)cc2)c1 [Compound 160, 2-methoxy-6-((E)-{[(3-methoxyphenyl)acetyl]hydrazono}methyl)-phenyl 4-methylbenzenesulfonate]",5 to 50 µM
17,"CCOc1cccc(/C=N/NC(=O)Cc2cccc(OC)c2)c1OS(=O)(=O)c1ccc(C)cc1 [Compound 161, 2-ethoxy-6-((E)-{[(3-methoxyphenyl)acetyl]hydrazono}methyl)-phenyl 4-methylbenzenesulfonate]",5 to 50 µM
18,"COc1cccc(CC(=O)N/N=C/c2c(OS(=O)(=O)c3ccc(C)cc3)ccc3ccccc23)c1 [Compound 162, 1-((E)-{2-[2-(3-methoxyphenyl)acetyl]hydrazono}methyl)-2-naphthyl 4-methylbenzenesulfonate]",5 to 50 µM

row,SMILES,IC50
1,"COc1cccc(CC(=O)N/N=C/c2cccc(C)c2OS(=O)(=O)c2ccc(C)cc2)c1 [Compound 163, 2-((E)-{[(3-methoxyphenyl)acetyl]hydrazono}methyl)-6-methylphenyl 4-methylbenzenesulfonate]",< 5 µM
2,"Cc1ccc(S(=O)(=O)Oc2ccc(F)cc2/C=N/NC(=O)Cc2cccc(Cl)c2)cc1 [Compound 164, 2-((E)-{[(3-chlorophenyl)acetyl]-hydrazono}methyl)-4-fluorophenyl 4-methylbenzenesulfonate]",< 5 µM
3,"COc1cccc(CC(=O)N/N=C/c2cccc(OC)c2OS(=O)(=O)c2ccc(C(F)(F)F)cc2)c1 [Compound 165, 2-methoxy-6-((E)-{[(3-methoxyphenyl)acetyl]hydrazono}methyl)-phenyl 4-(trifluoromethyl)-benzenesulfonate]",< 5 µM
4,COc1cccc(CC(=O)N/N=C/c2cc(Br)ccc2OS(=O)(=O)c2ccc(C(F)(F)F)cc2)c1 [Compound 166],< 5 µM
5,"COc1cccc(CC(=O)N/N=C/c2cccc(C)c2OS(=O)(=O)c2ccc(C(F)(F)F)cc2)c1 [Compound 168, 2-((E)-{[(3-methoxyphenyl)acetyl]hydrazono}methyl)-6-methylphenyl 4-(trifluoromethyl)benzenesulfonate]",< 5 µM
6,"COc1cccc(CC(=O)N/N=C/c2c(Br)ccc(OC)c2OS(=O)(=O)c2ccc(C(F)(F)F)cc2)c1 [Compound 169, 3-bromo-6-methoxy-2-((E)-{[(3-methoxyphenyl)acetyl]hydrazono}methyl)-phenyl 4-(trifluoromethyl)benzenesulfonate]",< 5 µM
7,"COc1cccc(CC(=O)N/N=C/c2c(OC)cccc2OS(=O)(=O)c2ccc(C(F)(F)F)cc2)c1 [Compound 170, 3-methoxy-2-((E)-{[(3-methoxyphenyl)acetyl]hydrazono}methyl)-phenyl 4-(trifluoromethyl)benzenesulfonate]",< 5 µM
8,"COc1cccc(CC(=O)N/N=C/c2cc(C)ccc2OS(=O)(=O)c2ccc(C(F)(F)F)cc2)c1 [Compound 171, 2-((E)-{[(3-methoxyphenyl)acetyl]hydrazono}methyl)-4-methylphenyl 4-(trifluoromethyl)benzenesulfonate]",< 5 µM
9,"COc1cccc(CC(=O)N/N=C/c2cc(F)ccc2OS(=O)(=O)c2ccc(C(F)(F)F)cc2)c1 [Compound 172, 4-fluoro-2-((E)-{[(3-methoxyphenyl)acetyl]hydrazono}methyl)-phenyl 4-(trifluoromethyl)benzenesulfonate]",< 5 µM
10,"Cc1cccc(/C=N/NC(=O)Cc2cccc(Cl)c2)c1OS(=O)(=O)c1ccc(C(F)(F)F)cc1 [Compound 173, 2-((E)-{[(3-chlorophenyl)acetyl]hydrazono}methyl)-6-methylphenyl 4-(trifluoromethyl)benzenesulfonate]",< 5 µM
11,"COc1cccc(OS(=O)(=O)c2ccc(C(F)(F)F)cc2)c1/C=N/NC(=O)Cc1cccc(Cl)c1 [Compound 174, 2-((E)-{[(3-chlorophenyl)acetyl]hydrazono}methyl)-3-methoxyphenyl 4-(trifluoromethyl)benzenesulfonate]",< 5 µM
12,"Cc1ccc(OS(=O)(=O)c2ccc(C(F)(F)F)cc2)c(/C=N/NC(=O)Cc2cccc(Cl)c2)c1 [Compound 175, 2-((E)-{[(3-chlorophenyl)acetyl]hydrazono}methyl)-4-methylphenyl 4-(trifluoromethyl)benzenesulfonate]",< 5 µM
13,"O=C(Cc1cccc(Cl)c1)N/N=C/c1cc(F)ccc1OS(=O)(=O)c1ccc(C(F)(F)F)cc1 [Compound 176, 2-((E)-{[(3-chlorophenyl)acetyl]hydrazono}methyl)-4-fluorophenyl 4-(trifluoromethyl)benzenesulfonate]",< 5 µM
14,"COc1cccc(CC(=O)N/N=C/c2ccc(C)cc2OS(=O)(=O)c2ccc(C)cc2)c1 [Compound 177, 2-((E)-{[(3-methoxyphenyl)acetyl]hydrazono}methyl)-5-methylphenyl 4-methylbenzenesulfonate]",< 5 µM
15,"COc1cccc(CC(=O)N/N=C/c2ccc(C)cc2OS(=O)(=O)c2ccc(C(F)(F)F)cc2)c1 [Compound 178, 2-((E)-{[(3-methoxyphenyl)acetyl]hydrazono}methyl)-5-methylphenyl 4-(trifluoromethyl)benzenesulfonate]",< 5 µM
16,"Cc1ccc(/C=N/NC(=O)Cc2cccc(Cl)c2)c(OS(=O)(=O)c2ccc(C(F)(F)F)cc2)c1 [Compound 179, 2-((E)-{[(3-chlorophenyl)acetyl]hydrazono}methyl)-5-methylphenyl 4-(trifluoromethyl)benzenesulfonate]",> 50 µM
17,"COc1cccc(CC(=O)N/N=C/c2cccc(Cl)c2OS(=O)(=O)c2ccc(C)cc2)c1 [Compound 180, 2-chloro-6-((E)-{[(3-methoxyphenyl)acetyl]hydrazono}methyl)-phenyl 4-methylbenzenesulfonate]",< 5 µM
18,"COc1cccc(CC(=O)N/N=C/c2cccnc2OS(=O)(=O)c2ccc(C)cc2)c1 [Compound 181, 3-((E)-{2-[2-(3-methoxyphenyl)acetyl]hydrazono}methyl)-pyridin-2-yl 4-methylbenzenesulfonate]",5 to 50 µM
